According to ChEMBL document CHEMBL4706528, “The design, synthesis and anti-tumor mechanism study of new androgen receptor degrader” (Eur J Med Chem, 2020):
Activity calls are given as the source filed them. The calls are words filed in the database; no cut-off is given here.

Assays:
[1] = target: T1, Androgen receptor (Homo sapiens) (UniProt P10275); experiment: Selective androgen receptor degradation activity at androgen receptor in human LNCaP cells assessed as down regulation of protein level at 10 uM after 24 hrs in presence of E-64 by Western blot analysis; assay type: cell-based
T1 sequence (whole entry): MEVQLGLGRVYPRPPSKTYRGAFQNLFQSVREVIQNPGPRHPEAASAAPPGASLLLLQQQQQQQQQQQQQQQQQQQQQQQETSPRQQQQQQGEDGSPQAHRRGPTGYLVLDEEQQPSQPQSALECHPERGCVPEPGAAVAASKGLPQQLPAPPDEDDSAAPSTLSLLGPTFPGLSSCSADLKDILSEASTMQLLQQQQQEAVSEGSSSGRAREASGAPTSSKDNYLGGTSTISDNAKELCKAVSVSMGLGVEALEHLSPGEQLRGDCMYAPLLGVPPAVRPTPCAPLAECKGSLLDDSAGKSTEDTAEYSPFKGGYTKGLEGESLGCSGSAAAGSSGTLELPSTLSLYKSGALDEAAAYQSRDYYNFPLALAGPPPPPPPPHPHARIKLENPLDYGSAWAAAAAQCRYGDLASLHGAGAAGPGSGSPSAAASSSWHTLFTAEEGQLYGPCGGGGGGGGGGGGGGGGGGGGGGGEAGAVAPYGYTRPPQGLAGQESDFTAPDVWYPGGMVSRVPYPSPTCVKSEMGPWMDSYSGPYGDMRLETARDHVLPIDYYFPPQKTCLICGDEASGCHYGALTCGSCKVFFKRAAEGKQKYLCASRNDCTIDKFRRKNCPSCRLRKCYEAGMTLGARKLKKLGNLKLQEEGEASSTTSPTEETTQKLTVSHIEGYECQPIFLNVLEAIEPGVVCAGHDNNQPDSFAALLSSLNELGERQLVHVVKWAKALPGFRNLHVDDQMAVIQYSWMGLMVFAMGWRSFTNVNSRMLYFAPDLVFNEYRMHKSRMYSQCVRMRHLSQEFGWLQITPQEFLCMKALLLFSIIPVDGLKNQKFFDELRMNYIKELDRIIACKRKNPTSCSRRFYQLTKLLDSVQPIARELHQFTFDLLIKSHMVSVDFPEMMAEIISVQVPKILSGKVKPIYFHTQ

LNCaP [2] = experiment: Induction of cell cycle arrest in human LNCaP cells assessed as accumulation at G2 phase at 10 micromol/L after 24 hrs by RNase A/PI-staining based flow cytometric analysis (reference value: 20.87%); assay type: functional; conditions: dose 10 µmol/L, at 10 µM
[3] = target: Prostate-specific antigen (Homo sapiens) (UniProt P07288); experiment: Induction of downregulation of PSA (unknown orgin) human LNCaP cells at 10 uM after 24 hrs by Western blot analysis
PC-3 = experiment: Antiproliferative activity against androgen-negative human PC-3 cells assessed as cell growth inhibition measured after 72 hrs by SRB assay; assay type: functional, cell-based; conditions: PC-3, 72 h
[4] = target: T1, Androgen receptor (Homo sapiens); experiment: Selective androgen receptor degradation activity at androgen receptor in human LNCaP cells assessed as down regulation of protein level at 1 uM after 24 hrs by Western blot analysis; assay type: cell-based
LNCaP [5] = experiment: Induction of apoptosis in human LNCaP cells assessed as total apoptotic cells at 10 uM incubated for 24 hrs by Annexin V/PI staining staining based flow cytometry (reference value: 2.76%); assay type: functional
MCF7 = experiment: Antiproliferative activity against androgen-positive human MCF7 cells assessed as cell growth inhibition measured after 72 hrs by SRB assay; assay type: functional, cell-based; conditions: MCF7, 72 h
LNCaP [6] = experiment: Induction of cell cycle arrest in human LNCaP cells assessed as accumulation at G2 phase at 1 micromol/L after 24 hrs by RNase A/PI-staining based flow cytometric analysis (reference value: 20.87%); assay type: functional; conditions: dose 1 µmol/L, at 1 µM
LNCaP [7] = experiment: Induction of apoptosis in human LNCaP cells assessed as early apoptotic cells level at 1 micromol/L incubated for 24 hrs by Annexin V/PI staining staining based flow cytometry (reference value: 2.09%); assay type: functional; conditions: dose 1 µmol/L, at 1 µM
LNCaP [8] = experiment: Induction of apoptosis in human LNCaP cells assessed as viable cells level at 1 micromol/L incubated for 24 hrs by Annexin V/PI staining staining based flow cytometry (reference value: 96.3%); assay type: functional; conditions: dose 1 µmol/L, at 1 µM
[9] = target: Prostate-specific antigen (Homo sapiens) (UniProt P07288); experiment: Induction of downregulation of PSA (unknown orgin) human LNCaP cells at 2 uM after 24 hrs by Western blot analysis
LNCaP C4-2B = experiment: Antiproliferative activity against androgen-sensitive positive human LNCaP C4-2B cells assessed as cell growth inhibition measured after 72 hrs by SRB assay; assay type: functional, cell-based
[10] = target: Prostate-specific antigen (Homo sapiens) (UniProt P07288); experiment: Induction of downregulation of PSA (unknown orgin) human LNCaP cells at 1 uM after 24 hrs by Western blot analysis
LNCaP [11] = experiment: Induction of cell cycle arrest in human LNCaP cells assessed as accumulation at G1 phase at 2 micromol/L after 24 hrs by RNase A/PI-staining based flow cytometric analysis (reference value: 47.99%); assay type: functional; conditions: dose 2 µmol/L, at 2 µM
LNCaP [12] = experiment: Induction of apoptosis in human LNCaP cells assessed as late apoptotic cells level at 1 micromol/L incubated for 24 hrs by Annexin V/PI staining staining based flow cytometry (reference value: 0.940%); assay type: functional; conditions: dose 1 µmol/L, at 1 µM
LNCaP [13] = experiment: Induction of apoptosis in human LNCaP cells assessed as viable cells level at 10 micromol/L incubated for 24 hrs by Annexin V/PI staining staining based flow cytometry (reference value: 96.3%); assay type: functional; conditions: dose 10 µmol/L, at 10 µM
[14] = target: T1, Androgen receptor (Homo sapiens); experiment: Selective androgen receptor degradation activity at androgen receptor in human LNCaP cells assessed as down regulation of protein level at 10 uM after 24 hrs by Western blot analysis; assay type: cell-based
LNCaP [15] = experiment: Induction of cell cycle arrest in human LNCaP cells assessed as accumulation at G1 phase at 1 micromol/L after 24 hrs by RNase A/PI-staining based flow cytometric analysis (reference value: 47.99%); assay type: functional; conditions: dose 1 µmol/L, at 1 µM
[16] = target: T1, Androgen receptor (Homo sapiens); experiment: Binding affinity to androgen receptor LBD (unknown origin) at 10 uM incubated for 4 hrs under dark by fluorescence polarization based binding assay relative to R1881
[17] = target: T1, Androgen receptor (Homo sapiens); experiment: Selective androgen receptor degradation activity at androgen receptor in human LNCaP cells assessed as down regulation of protein level at 2 uM after 24 hrs by Western blot analysis; assay type: cell-based
[18] = Cytotoxicity against androgen-negative human WPMY-1 cells assessed as cell growth inhibition measured after 72 hrs by SRB assay; assay type: cell-based; conditions: WPMY-1, 72 h
LNCaP [19] = experiment: Induction of cell cycle arrest in human LNCaP cells assessed as accumulation at G1 phase at 10 micromol/L after 24 hrs by RNase A/PI-staining based flow cytometric analysis (reference value: 47.99%); assay type: functional; conditions: dose 10 µmol/L, at 10 µM
LNCaP [20] = experiment: Induction of apoptosis in human LNCaP cells assessed as late cells level at 2 micromol/L incubated for 24 hrs by Annexin V/PI staining staining based flow cytometry (reference value: 0.940%); assay type: functional; conditions: dose 2 µmol/L, at 2 µM

Sequence of Prostate-specific antigen (Homo sapiens) (P07288 whole entry, looked up): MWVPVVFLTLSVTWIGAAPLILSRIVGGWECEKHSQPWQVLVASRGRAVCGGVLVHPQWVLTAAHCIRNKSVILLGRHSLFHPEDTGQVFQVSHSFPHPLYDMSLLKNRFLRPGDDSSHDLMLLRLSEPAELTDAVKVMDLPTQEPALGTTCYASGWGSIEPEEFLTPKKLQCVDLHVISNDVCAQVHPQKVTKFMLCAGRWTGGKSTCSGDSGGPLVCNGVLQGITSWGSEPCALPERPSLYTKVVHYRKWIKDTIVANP

Activity [1]: Active
Activity [3]: Active
IC50 (PC-3): > 80 µM
Activity [4]: Active
IC50 (MCF7): 50.5 µM
Activity [9]: Active
IC50 (LNCaP C4-2B): 16.6 µM
Activity [10]: Active
Activity [14]: Active
Activity [16]: 85.3%
Activity [17]: Active
SMILES: CC1(C)C(=O)N(c2ccc(C#N)c(C(F)(F)F)c2)C(=S)N1CCCCCn1cc(COCCOCCOC(=O)CC23CC4CC(CC(C4)C2)C3)nn1
Activity (LNCaP [2]): 6.4%
Activity (LNCaP [5]): 19.22%
Activity (LNCaP [6]): 20.07%
Activity (LNCaP [7]): 1.56%
Activity (LNCaP [8]): 96.1%
Activity (LNCaP [11]): 67.54%
Activity (LNCaP [12]): 1.59%
Activity (LNCaP [13]): 79%
Activity (LNCaP [15]): 59.3%
IC50 [18]: > 80 µM
Activity (LNCaP [19]): 74.56%
Activity (LNCaP [20]): 1.59%
